Experimental data: patent US8097628B2, “Compounds” (Glaxo Group Limited, priority 2008, dated 2012)
Values after ≈ are worked out from the molar mass of the structure shown. Counter-ions that a name gives are not always drawn.

What follows are molecules tested on Mycobacterium tuberculosis H37Rv (assay: Mycobacterium tuberculosis H37Rv Inhibition Assay). Settings: ATCC 25618 / H37Rv, H37Rv strain (ATCC25618), Middlebrook 7H9, resazurin fluorescence, read-out: MtB MIC.
Format: cell-based
With `Cc1cc(CNC2CCN(CC3Cn4c(=O)ccc5ncc(=O)n3c54)CC2)cnc1F` (stereo not shown) [Example 33, 2-[(4-{[(6-fluoro-5-methyl-3-pyridinyl)methyl]amino}-1-piperidinyl)methyl]-1,2-dihydro-3H,8H-2a,5,8a-triazaacenaphthylene-3,8-dione] the MIC was 0.531 mg/L (≈ 1.25 µM). Work on `Cc1cc(CNC2CCN(CC3Cn4c(=O)ccc5ncc(=O)n3c54)CC2)ccc1Cl` (stereo not shown) [Example 34, 2-[(4-{[(4-chloro-3-methylphenyl)methyl]amino}-1-piperidinyl)methyl]-1,2-dihydro-3H,8H,2a,5,8a-triazaacenaphthylene-3,8-dione] yielded an MIC of 0.069 mg/L (≈ 0.157 µM). `O=c1ccc2ncc(=O)n3c2n1CC3CN1CCC(NCc2cc(Br)cs2)CC1` (stereo not shown) [Example 35, 2-[(4-{[(4-bromo-2-thienyl)methyl]amino}-1-piperidinyl)methyl]-1,2-dihydro-3H,8H-2a,5,8a-triazaacenaphthylene-3,8-dione] showed an MIC of 1.19 mg/L (≈ 2.5 µM). For `Cl.O=c1ccc2ncc(=O)n3c2n1CC3CN1CCC(NCc2ccc(Cl)c(Cl)c2)CC1` (stereo not shown) [Example 36, 2-[(4-{[(3,4-dichlorophenyl)methyl]amino}-1-piperidinyl)methyl]-1,2-dihydro-3H,8H-2a,5,8a-triazaacenaphthylene-3,8-dione], the MIC was 0.015 mg/L. For `O=c1ccc2ncc(=O)n3c2n1CC3CN1CCC(NCc2cnc(Cl)s2)CC1` (stereo not shown) [Example 37, 2-[(4-{[(2-chloro-1,3-thiazol-5-yl)methyl]amino}-1-piperidinyl)methyl]-1,2-dihydro-3H,8H-2a,5,8a-triazaacenaphthylene-3,8-dione], the MIC was 2.17 mg/L (≈ 5 µM). `O=c1ccc2ncc(=O)n3c2n1CC3CN1CCC(NCc2ccc([N+](=O)[O-])cc2)CC1` (stereo not shown) [Example 38, 2-[(4-{[(4-nitrophenyl)methyl]amino}-1-piperidinyl)methyl]-1,2-dihydro-3H,8H-2a,5,8a-triazaacenaphthylene-3,8-dione] was tested, and the MIC was 0.273 mg/L (≈ 0.625 µM). `COc1ccc(CNC2CCN(CC3Cn4c(=O)ccc5ncc(=O)n3c54)CC2)cc1Cl` (stereo not shown) [Example 39, 2-{[4-({[3-chloro-4-(methyloxy)phenyl]methyl}amino)-1-piperidinyl]methyl}-1,2-dihydro-3H,8H-2a,5,8a-triazaacenaphthylene-3,8-dione] was tested, and the MIC was 1.14 mg/L (≈ 2.5 µM). In the case of `O=c1ccc2ncc(=O)n3c2n1CC3CN1CCC(NCc2ccc(Br)cn2)CC1` (stereo not shown) [Example 40, 2-[(4-{[(5-bromo-2-pyridinyl)methyl]amino}-1-piperidinyl)methyl]-1,2-dihydro-3H,8H-2a,5,8a-triazaacenaphthylene-3,8-dione], the MIC is reported as 1.18 mg/L (≈ 2.5 µM). For `O=c1ccc2ncc(=O)n3c2n1CC3CN1CCC(NCc2cncc(Br)c2)CC1` (stereo not shown) [Example 41, 2-[(4-{[(5-bromo-3-pyridinyl)methyl]amino}-1-piperidinyl)methyl]-1,2-dihydro-3H,8H-2a,5,8a-triazaacenaphthylene-3,8-dione], the MIC was 0.884 mg/L (≈ 1.88 µM). Molecule `O=c1ccc2ncc(=O)n3c2n1CC3CN1CCC(NCc2cncc(Cl)c2)CC1` (stereo not shown) [Example 42, 2-[(4-{[(5-chloro-3-pyridinyl)methyl]amino}-1-piperidinyl)methyl]-1,2-dihydro-3H,8H-2a,5,8a-triazaacenaphthylene-3,8-dione] has an MIC of 1.07 mg/L (≈ 2.5 µM). Molecule `Cc1ccc(CNC2CCN(CC3Cn4c(=O)ccc5ncc(=O)n3c54)CC2)cc1F` (stereo not shown) [Example 43, 2-[(4-{[(3-fluoro-4-methylphenyl)methyl]amino}-1-piperidinyl)methyl]-1,2-dihydro-3H,8H-2a,5,8a-triazaacenaphthylene-3,8-dione] has an MIC of 0.066 mg/L (≈ 0.156 µM). With `O=c1ccc2ncc(=O)n3c2n1CC3CN1CCC(NCc2ccc(F)c(F)c2)CC1` (stereo not shown) [Example 44, 2-[(4-{[(3,4-difluorophenyl)methyl]amino}-1-piperidinyl)methyl]-1,2-dihydro-3H,8H-2a,5,8a-triazaacenaphthylene-3,8-dione] the MIC was 0.267 mg/L (≈ 0.625 µM). `Cl.O=c1ccc2ncc(=O)n3c2n1C[C@H]3CN1CCC(NCc2ccc(C(F)(F)F)nc2)CC1` [Example 46, (2R)-2-{[4-({[6-(trifluoromethyl)-3-pyridinyl]methyl}amino)-1-piperidinyl]methyl}-1,2-dihydro-3H,8H-2a,5,8a-triazaacenaphthylene-3,8-dione hydrochloride] was tested, and the MIC was 0.078 mg/L. In the case of `O=c1ccc2ncc(=O)n3c2n1C[C@@H]3CN1CCC(NCc2ccc(Cl)c(Cl)c2)CC1` [Example 47, (2S)-2-[(4-{[(3,4-dichlorophenyl)methyl]amino}-1-piperidinyl)methyl]-1,2-dihydro-3H,8H-2a,5,8a-triazaacenaphthylene-3,8-dione], the MIC is reported as 0.072 mg/L (≈ 0.156 µM). `O=c1ccc2ncc(=O)n3c2n1C[C@@H]3CN1CCC(NCc2ccc(C(F)(F)F)nc2)CC1` [Example 48, (2S)-2-{[4-({[6-(trifluoromethyl)-3-pyridinyl]methyl}amino)-1-piperidinyl]methyl}-1,2-dihydro-3H,8H-2a,5,8a-triazaacenaphthylene-3,8-dione] showed an MIC of 2.3 mg/L (≈ 5 µM). Work on `N#Cc1ncc(CNC2CCN(C[C@@H]3Cn4c(=O)ccc5ccc(=O)n3c54)CC2)cc1Cl` [Example 49, 3-chloro-5-{[(1-{[(1R)-4,9-dioxo-1,2-dihydro-4H,9H-imidazo[1,2,3-ij]-1,8-naphthyridin-1-yl]methyl}-4-piperidinyl)amino]methyl}-2-pyridinecarbonitrile] yielded an MIC of 0.07 mg/L (≈ 0.155 µM). `Cl.N#Cc1ncc(CNC2CCN(C[C@@H]3Cn4c(=O)ccc5ccc(=O)n3c54)CC2)cc1Cl` [Example 50, 3-chloro-5-{[(1-{[(1R)-4,9-dioxo-1,2-dihydro-4H,9H-imidazo[1,2,3-ij]-1,8-naphthyridin-1-yl]methyl}-4-piperidinyl)amino]methyl}-2-pyridinecarbonitrile dihydrochloride] showed an MIC of 0.082 mg/L. `Cc1ncc(CNC2CCN(CC3Cn4c(=O)ccc5ncc(=O)n3c54)CC2)cc1F` (stereo not shown) [Example 52, 2-[(4-{[(5-fluoro-6-methyl-3-pyridinyl)methyl]amino}-1-piperidinyl)methyl]-1,2-dihydro-3H,8H-2a,5,8a-triazaacenaphthylene-3,8-dione] showed an MIC greater than 2.12 mg/L. With `Cc1ncc(CNC2CCN(C[C@H]3Cn4c(=O)ccc5ncc(=O)n3c54)CC2)cc1Cl` [Example 53, (2S)-2-[(4-{[(5-chloro-6-methyl-3-pyridinyl)methyl]amino}-1-piperidinyl)methyl]-1,2-dihydro-3H,8H-2a,5,8a-triazaacenaphthylene-3,8-dione] the MIC was 0.83 mg/L (≈ 1.88 µM). Molecule `CCc1ncc(CNC2CCN(C[C@@H]3Cn4c(=O)ccc5ccc(=O)n3c54)CC2)cc1F` [Example 54, (1R)-1-[(4-{[(6-ethyl-5-fluoro-3-pyridinyl)methyl]amino}-1-piperidinyl)methyl]-1,2-dihydro-4H,9H-imidazo[1,2,3-ij]-1,8-naphthyridine-4,9-dione] has an MIC of 2.19 mg/L (≈ 5 µM). `O=c1ccc2ccc(=O)n3c2n1C[C@H]3CN1CCC(NCc2cnc(CO)c(Cl)c2)CC1` [Example 56, (1R)-1-{[4-({[5-chloro-6-(hydroxymethyl)-3-pyridinyl]methyl}amino)-1-piperidinyl]methyl}-1,2-dihydro-4H,9H-imidazo[1,2,3-ij]-1,8-naphthyridine-4,9-dione] gave an MIC of 0.3 mg/L (≈ 0.658 µM). With `COc1cc(CNC2CCN(CC3Cn4c(=O)ccc5ncc(=O)n3c54)CC2)ccc1C` (stereo not shown) [Example 57, 2-{[4-({[4-methyl-3-(methyloxy)phenyl]methyl}amino)-1-piperidinyl]methyl}-1,2-dihydro-3H,8H-2a,5,8a-triazaacenaphthylene-3,8-dione] the MIC was 1.09 mg/L (≈ 2.5 µM). `Cl.O=c1ccc2ccc(=O)n3c2n1C[C@H]3CN1CCC(NCc2ccc(C(F)(F)F)nc2)CC1` [Example 59, (1R)-1-{[4-({[6-(trifluoromethyl)-3-pyridinyl]methyl}amino)-1-piperidinyl]methyl}-1,2-dihydro-4H,9H-imidazo[1,2,3-ij]-1,8-naphthyridine-4,9-dione hydrochloride] gave an MIC of 0.154 mg/L.

Same assay, conditions: ATCC 25618 / H37Rv, read-out: MtB MIC
For `Cc1ncc(CNC2CCN(C[C@@H]3Cn4c(=O)ccc5ncc(=O)n3c54)CC2)cc1Br` [Example 51, (2R)-2-[(4-{[(5-bromo-6-methyl-3-pyridinyl)methyl]amino}-1-piperidinyl)methyl]-1,2-dihydro-3H,8H-2a,5,8a-triazaacenaphthylene-3,8-dione hydrochloride], the MIC was 0.015 mg/L. For `Cc1ncc(CNC2CCN(C[C@@H]3Cn4c(=O)cnc5ccc(=O)n3c54)CC2)cc1Br` [Example 55, (1R)-1-[(4-{[(5-bromo-6-methyl-3-pyridinyl)methyl]amino}-1-piperidinyl)methyl]-1,2-dihydro-3H,8H-2a,5,8a-triazaacenaphthylene-3,8-dione hydrochloride], the MIC was 0.04 mg/L.

Same assay, conditions: H37Rv inhibition assay, read-out: MIC value
`O=c1ccc2ncc(=O)n3c2n1CC3CN1CCC(NCc2cc(Br)cs2)CC1` (stereo not shown) [Example 35, 2-[(4-{[(4-bromo-2-thienyl)methyl]amino}-1-piperidinyl)methyl]-1,2-dihydro-3H,8H-2a,5,8a-triazaacenaphthylene-3,8-dione] was tested, and the MIC was greater than 1 mg/L. In the case of `COc1ccc(CNC2CCN(CC3Cn4c(=O)ccc5ncc(=O)n3c54)CC2)cc1Cl` (stereo not shown) [Example 39, 2-{[4-({[3-chloro-4-(methyloxy)phenyl]methyl}amino)-1-piperidinyl]methyl}-1,2-dihydro-3H,8H-2a,5,8a-triazaacenaphthylene-3,8-dione], the MIC is reported as greater than 1 mg/L. Molecule `O=c1ccc2ncc(=O)n3c2n1CC3CN1CCC(NCc2ccc(Br)cn2)CC1` (stereo not shown) [Example 40, 2-[(4-{[(5-bromo-2-pyridinyl)methyl]amino}-1-piperidinyl)methyl]-1,2-dihydro-3H,8H-2a,5,8a-triazaacenaphthylene-3,8-dione] has an MIC greater than 1 mg/L. `O=c1ccc2ncc(=O)n3c2n1C[C@@H]3CN1CCC(NCc2ccc(C(F)(F)F)nc2)CC1` [Example 48, (2S)-2-{[4-({[6-(trifluoromethyl)-3-pyridinyl]methyl}amino)-1-piperidinyl]methyl}-1,2-dihydro-3H,8H-2a,5,8a-triazaacenaphthylene-3,8-dione] was tested, and the MIC was greater than 1 mg/L. Work on `Cc1ncc(CNC2CCN(CC3Cn4c(=O)ccc5ncc(=O)n3c54)CC2)cc1F` (stereo not shown) [Example 52, 2-[(4-{[(5-fluoro-6-methyl-3-pyridinyl)methyl]amino}-1-piperidinyl)methyl]-1,2-dihydro-3H,8H-2a,5,8a-triazaacenaphthylene-3,8-dione] yielded an MIC greater than 1 mg/L. In the case of `Cc1ncc(CNC2CCN(C[C@@H]3Cn4c(=O)ccc5ccc(=O)n3c54)CC2)cc1F` [Example 63, (1R)-1-[(4-{[(5-fluoro-6-methyl-3-pyridinyl)methyl]amino}-1-piperidinyl)methyl]-1,2-dihydro-4H,9H-imidazo[1,2,3-ij]-1,8-naphthyridine-4,9-dione], the MIC is reported as greater than 1 mg/L. Molecule `O=c1ccc2ccc(=O)n3c2n1C[C@H]3CN1CCC(NCc2ccc(CO)c(Cl)c2)CC1` [Example 64, (1R)-1-{[4-({[3-chloro-4-(hydroxymethyl)phenyl]methyl}amino)-1-piperidinyl]methyl}-1,2-dihydro-4H,9H-imidazo[1,2,3-ij]-1,8-naphthyridine-4,9-dione] has an MIC greater than 1 mg/L. `COCCc1ncc(CNC2CCN(C[C@@H]3Cn4c(=O)ccc5ncc(=O)n3c54)CC2)cc1Cl` [Example 65, (2R)-2-({4-[({5-chloro-6-[2-(methyloxy)ethyl]-3-pyridinyl}methyl)amino]-1-piperidinyl}methyl)-1,2-dihydro-3H,8H-2a,5,8a-triazaacenaphthylene-3,8-dione] was tested, and the MIC was greater than 1 mg/L. With `CC(=O)OCc1ccc(CNC2CCN(C[C@@H]3Cn4c(=O)ccc5ccc(=O)n3c54)CC2)cc1Cl` [Example 71, (2-chloro-4-{[(1-{[(1R)-4,9-dioxo-1,2-dihydro-4H,9H-imidazo[1,2,3-ij]-1,8-naphthyridin-1-yl]methyl}-4-piperidinyl)amino]methyl}phenyl)methyl acetate] the MIC was greater than 1 mg/L.
